What was measured:
[1] = test system: lymphoma cells; settings: cited from earlier work
[2] = test system: Blood-loss Anemia Model; test: Blood-loss anemia model, rats; settings: 8.64 mg Fe/kg (middle dosage / positive controls), n=10;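 further: male Wistar rats made anemic by repeated orbital bloodletting, kept on iron-low diet with deionized water while dosed, compared against untreated anemic model and normal-diet control groups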
Method: Ferrous gluconate, the positive control drug, yellow-green powder and 11% ferrous content, was purchased from Ganjian Pharmaceutical Company of Jianxi Province. Ferrous fumarate, 6.4% ferrous content, was purchased from the 18th Pharmaceutical Company of Shanghai. All drugs were diluted by distilled water.
7 groups were prepared as hemolytic anemia groups and one group was taken as normal control group supplemented with normal diet and water. The hemolytic anemia model was prepared by subjecting rats to inner canthus bloodletting of right eye through capillary glass tube. The first bloodletting content was 2.0 ml for each rat and in that time the range of hemochrome for rats was from 9.78 to 10.65 g %. Two days later, the second bloodletting (2 ml/rat) was carried out with the hemochrome values of 7.40-7.88 g %. The total bloodletting volume for each rat was 4 ml and was 32.9% in volume of the whole blood circulating the body.
While one hemolytic anemia group and one normal control group were taken as reference groups compared with other groups left. These two groups' rats were killed and the blood parameters were recorded. Other six groups now were randomly divided into three treatment groups of ferrous L-threonate with high, middle and low dosages respectively, two positive drugs control groups of ferrous gluconate and ferrous fumarate and one model group. At the end of 12 days and 18 days experimental periods, 5 and 10 rats of each group were killed correspondingly. During the course of experiment, the variations of hemochrome content were examined with 6 days interval.
While Element ferrous content 8.64 mg/kg as ferrous gluconate or ferrous fumarate was for positive drug control group. The groups for blood-loss anemia were provided iron-low diet and deionized water during the period of the administration of drugs, while the normal animal control group was provided normal diet and deionized water.

[3] = test system: Hemolytic Anemia Model; test: Hemolytic anemia model (acetylphenylhydrazine), rats; format: in vivo, male Wistar rats; settings: 8.64 mg Fe/kg (middle dosage / positive control)
Method: 1. […] All drugs were diluted by distilled water.
2. […] Animal diet also was purchased from Beijing Medical University.
(1) Hemolytic Anemia Model: Hemolytic anemia model was prepared for rats by injecting reagent of acetylphenylhydrazine (C8 H10 N2 O, produced by Beijing Biochemical Company) subcutaneously. The drug acetyphenylhydrazine was mixed with physiological saline to get its injection solution of 4% by weight of acetyphenylhydrazine. The solution was injected subcutaneously into each rat with a dosage of 57 μg/g at the beginning of the experiments. The content of blood hemochrome for each rat was examined at 2 days and 4 days later, respectively. When the mean blood hemochrome decreased to about 6.11±0.25 g %, rats were randomly divided into 6 groups of 18 rats each. […] The forth groups was positive drug control groups. The fifth group and the sixth group were designed as model group and normal control group, respectively.

[4] = test system: IDA; settings: in vivo; cited from earlier work
[5] = rat, in vivo, po, 2.5 mg/kg, 72 h
Method: Its chemical formula is Fe(C4 H7 O5)2.2H2 O, molecular weight:362.
Animals: Male Wistar rats were supplied by Experimental Animal Center, Tumor Institute of Heilongjian Province with body weight of 140 g-180 g. The iron-low diet contains iron 0.9 mg/kg.
50 rats were randomly divided into 5 groups of [19] 10 rats each. On this basis of administration of iron-low diet, each group of rats was administered respectively by gavage according to the dosage below:
High dosage group: Fe, 5 mg/kg, ferrous L-threonate, 32.32 mg/kg;
Middle dosage group: Fe, 2.5 mg/kg, ferrous L-threonate, 16.16 mg/kg;
Low dosage group: Fe, 1.0 mg/kg, ferrous L-threonate, 6.46 mg/kg;
Positive drug control group (ferrous sulfate): Fe, 2.5 mg/kg, ferrous sulfate, 12.43 mg/kg;
Negative drug control group (iron-low diet): Fe, 0.9 mg/kg (measured value).
After the end of 7 days feeding normal diet period, rats were supplemented with iron-low diet prepared according to AOAC formula for another 7 days. The 1-3 groups were treatment groups and supplemented with ferrous L-threonate 32.32 mg/kg (5 mgFe/kg, high dose group), 16.16 mg/kg (2.5 mg Fe/kg, middle dose group) and 6.46 mg/kg (1.0 mg Fe/kg, low dose group), respectively. The forth, positive drug control group, was provided with ferrous sulfate 12.43 mg/kg (2.5 mg Fe/kg). The fifth was model control group and was offered with iron-low diet (0.9 mg Fe/kg). Each groups were arranged to take drug one time by I.G (gavage) method per day and in the same time were supplemented with deionized water.
The test was sustained three days. Each rat's excrement was collected, dried at temperature 80-90° C., weighed and ground into 40-60 meshes. About 0.5 to 0.6 gram sample was taken and a mixture of nitric acid and perchloric acid at a ratio of 4:1 was added therein until completion of digestion. The constant volume is 10 ml. The iron content of excrement was determined by atomic absorption method and the iron absorptive rate for each rat can be calculated by the formula listed below. [formula]

| Compound | uptake of vitamin C by the lymphoma cells [1] | Blood hemochrome content ([2]; 6 days after treatment) | Blood hemochrome content ([2]; 12 days after treatment) | GPC (blood granulophilocyte) ([2]; 12 days) [%] | RBC ([2]; 12 days) [L⁻¹] | Blood hemochrome content ([2]; 18 days after treatment) | GPC (blood granulophilocyte) ([2]; 18 days) [%] | RBC ([2]; 18 days) [L⁻¹] | Blood hemochrome content ([2]; before treatment) | Iron content of whole blood [3] [µg/mL] | Serum ferritin (SF) [3] [ng/mL] | hemoglobin content ([3]; after anemia (before treatment)) [g %] | hemoglobin content ([3]; before anemia (baseline)) [g %] | hemoglobin content ([3]; one week after treatment) [g %] | hemoglobin content ([3]; two weeks after treatment) [g %] | side effects [4] | Absorptivity [5] [%] |
| --- | --- | --- | --- | --- | --- | --- | --- | --- | --- | --- | --- | --- | --- | --- | --- | --- | --- |
| O=C(O)[C@H](O)[C@@H](O)CO [Calcium L-threonate] | can improve uptake of vitamin C by the lymphoma cells |  |  |  |  |  |  |  |  |  |  |  |  |  |  |  |  |
| O=C([O-])/C=C/C(=O)[O-].[Fe+2] [Ferrous fumarate, reference compound] |  | 7.80 ± 0.24 | 10.12 ± 0.52 | 12.66 | 4.2e+12 | 11.84 ± 0.45 | 9.04 | 5.14e+12 | 7.43 ± 0.85 |  |  |  |  |  |  |  |  |
| Ferrous gluconate [reference compound] |  | 7.95 ± 0.30 | 10.50 ± 0.61 | 12.66 | 4.488e+12 | 11.80 ± 0.63 | 9.04 | 5.14e+12 | 7.50 ± 0.76 | 286.04 ± 26.797 | 20.14 ± 2.83 | 6.57 | 15.34 | 10.62 | 12.65 |  |  |
| ferrous sulfate [reference compound] |  |  |  |  |  |  |  |  |  |  |  |  |  |  |  | limited because of its side effects | 42.00 ± 1.02 |

Reference: US6313170A, “L-threonate ferrous, as well as pharmaceutical composition and use for improving and treating human anemia thereof” (priority 1997, dated 2001)
